Where only a bound is given, the exact number is not on record here.

The values that follow come from patent publication US20150291593A1, “NOVEL HETEROARYL AND HETEROCYCLE COMPOUNDS, COMPOSITIONS AND METHODS” (HUTCHISON MEDIPHARMA LIMITED, priority 2012, published 2015).

Type in all cases: biochemical
For one test, the target named is T1, p110δ/p85α (Homo sapiens, UniProt O00329).
T1 construct: purchased Invitrogen
In words: Transcreener KINASE Assay, kinase inhibition of p110δ/p85α. Conditions: for IC50: read-out: PI3Kδ IC50. As for the experimental part:
(§1) PI3K kinases including p110α/p85α, p110δ/p85α and p110γ are purchased from Invitrogen, and p110β/p85α is from Millipore.
(§2) Primary screening data and IC50 values are measured using Transcreener™ KINASE Assay (Bellbrook, Catalog #3003-10K). […] It is a universal, homogenous, high throughput screening (HTS) technology using a far-red, competitive fluorescence polarization immunoassay based on the detection of ADP to monitor the activity of enzymes that catalyze group transfer reactions. Briefly, the Transcreener KINASE Assay is designed as a simple two-part, endpoint assay.
(§3) In the first step, the 25 ul kinase reaction is performed by preparing a reaction mixture containing 5 ul test compound (2% DMSO final concentration), 10 ul kinase, buffer (50 mM HEPES, 100 mM NaCl, 1 mM EGTA, 0.03% CHAPS, 3 mM MgCl2, and freshly supplemented 1 mM DTT), and 10 ul 30 uM PIP2/10 uM ATP. The plate is sealed and incubated for 80 min at room temperature. Next, 25 ul ADP detection mix is added per well. The plate is sealed again and incubated for 60 min at room temperature, and then measure fluorescence polarization by Tecan Infinite F500 Reader.
(§4) Data is analyzed and IC50s are generated using the add-in software for Microsoft Excel, Xlfit™ (version 2.0). IH %=(ADP amount under 2% DMSO-ADP amount under test compound)/ADP amount under 2% DMSO.

A further test has as its target T2, p110γ (Homo sapiens, UniProt P48736).
T2 construct: purchased Invitrogen
Briefly: Transcreener KINASE Assay, kinase inhibition of p110γ. Conditions: for IC50: read-out: PI3Kγ IC50. On the procedure: PI3K kinases including p110α/p85α, p110δ/p85α and p110γ are purchased from Invitrogen, and p110β/p85α is from Millipore. Primary screening data and IC50 values are measured using Transcreener™ KINASE Assay (Bellbrook, Catalog #3003-10K). […] It is a universal, homogenous, high throughput screening (HTS) technology using a far-red, competitive fluorescence polarization immunoassay based on the detection of ADP to monitor the activity of enzymes that catalyze group transfer reactions. Briefly, the Transcreener KINASE Assay is designed as a simple two-part, endpoint assay. […] The plate is sealed and incubated for 80 min at room temperature. Next, 25 ul ADP detection mix is added per well. The plate is sealed again and incubated for 60 min at room temperature, and then measure fluorescence polarization by Tecan Infinite F500 Reader. Data is analyzed and IC50s are generated using the add-in software for Microsoft Excel, Xlfit™ (version 2.0).

Another test addresses T3, p110β/p85α (Homo sapiens, UniProt P42338).
T3 construct: purchased Millipore
In words: Transcreener KINASE Assay, kinase inhibition of p110β/p85α. The following applies: for IC50: read-out: PI3Kβ IC50. As for the experimental part:
as §1, §2, §3, §4

T1 sequence (O00329 whole entry, species assumed): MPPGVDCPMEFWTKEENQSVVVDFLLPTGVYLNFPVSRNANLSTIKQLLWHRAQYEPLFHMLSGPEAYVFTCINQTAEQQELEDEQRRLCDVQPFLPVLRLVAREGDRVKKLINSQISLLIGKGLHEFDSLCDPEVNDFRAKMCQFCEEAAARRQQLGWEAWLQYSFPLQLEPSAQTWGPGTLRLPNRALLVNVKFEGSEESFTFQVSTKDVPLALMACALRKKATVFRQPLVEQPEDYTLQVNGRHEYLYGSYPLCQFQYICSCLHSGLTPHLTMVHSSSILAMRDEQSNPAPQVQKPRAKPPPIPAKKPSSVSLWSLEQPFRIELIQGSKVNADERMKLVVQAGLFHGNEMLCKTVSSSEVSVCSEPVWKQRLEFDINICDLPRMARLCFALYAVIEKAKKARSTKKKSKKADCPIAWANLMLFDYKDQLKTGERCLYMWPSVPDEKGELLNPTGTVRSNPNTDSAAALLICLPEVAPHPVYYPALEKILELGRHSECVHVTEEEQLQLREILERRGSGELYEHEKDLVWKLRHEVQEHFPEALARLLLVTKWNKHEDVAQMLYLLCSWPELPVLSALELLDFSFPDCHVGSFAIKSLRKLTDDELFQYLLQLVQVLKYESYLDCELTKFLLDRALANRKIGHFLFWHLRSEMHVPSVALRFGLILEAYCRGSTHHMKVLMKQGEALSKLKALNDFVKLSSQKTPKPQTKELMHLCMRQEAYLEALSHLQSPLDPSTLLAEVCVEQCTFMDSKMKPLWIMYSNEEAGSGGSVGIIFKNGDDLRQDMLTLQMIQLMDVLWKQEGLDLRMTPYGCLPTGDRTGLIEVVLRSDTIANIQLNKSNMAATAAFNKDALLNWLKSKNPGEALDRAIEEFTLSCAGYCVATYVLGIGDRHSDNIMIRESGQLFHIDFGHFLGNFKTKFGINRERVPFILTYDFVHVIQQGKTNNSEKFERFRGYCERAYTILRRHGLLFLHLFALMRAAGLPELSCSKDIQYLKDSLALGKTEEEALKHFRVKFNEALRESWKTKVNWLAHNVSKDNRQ
T1 sequence (P27986 whole entry partner, species assumed): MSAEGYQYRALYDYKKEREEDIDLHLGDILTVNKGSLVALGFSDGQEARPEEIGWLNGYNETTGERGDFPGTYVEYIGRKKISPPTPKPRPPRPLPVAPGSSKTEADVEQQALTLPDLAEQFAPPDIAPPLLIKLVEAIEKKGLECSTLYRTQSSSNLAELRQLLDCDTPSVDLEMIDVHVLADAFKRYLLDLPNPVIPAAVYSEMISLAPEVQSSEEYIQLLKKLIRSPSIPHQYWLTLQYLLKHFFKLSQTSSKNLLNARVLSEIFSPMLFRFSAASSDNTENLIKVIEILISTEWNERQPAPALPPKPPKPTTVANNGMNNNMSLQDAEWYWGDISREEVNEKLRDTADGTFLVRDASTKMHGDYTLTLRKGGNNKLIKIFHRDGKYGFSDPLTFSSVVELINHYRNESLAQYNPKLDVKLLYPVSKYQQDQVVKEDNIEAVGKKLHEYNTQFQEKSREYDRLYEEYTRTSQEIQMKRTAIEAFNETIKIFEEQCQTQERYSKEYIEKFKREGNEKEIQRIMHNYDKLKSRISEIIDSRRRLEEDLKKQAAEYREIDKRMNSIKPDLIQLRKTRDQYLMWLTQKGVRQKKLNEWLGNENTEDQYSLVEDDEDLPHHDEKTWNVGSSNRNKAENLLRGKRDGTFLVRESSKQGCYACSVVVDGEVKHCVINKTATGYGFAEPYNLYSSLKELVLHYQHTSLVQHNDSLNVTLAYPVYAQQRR
T3 sequence (P42338 whole entry, species assumed): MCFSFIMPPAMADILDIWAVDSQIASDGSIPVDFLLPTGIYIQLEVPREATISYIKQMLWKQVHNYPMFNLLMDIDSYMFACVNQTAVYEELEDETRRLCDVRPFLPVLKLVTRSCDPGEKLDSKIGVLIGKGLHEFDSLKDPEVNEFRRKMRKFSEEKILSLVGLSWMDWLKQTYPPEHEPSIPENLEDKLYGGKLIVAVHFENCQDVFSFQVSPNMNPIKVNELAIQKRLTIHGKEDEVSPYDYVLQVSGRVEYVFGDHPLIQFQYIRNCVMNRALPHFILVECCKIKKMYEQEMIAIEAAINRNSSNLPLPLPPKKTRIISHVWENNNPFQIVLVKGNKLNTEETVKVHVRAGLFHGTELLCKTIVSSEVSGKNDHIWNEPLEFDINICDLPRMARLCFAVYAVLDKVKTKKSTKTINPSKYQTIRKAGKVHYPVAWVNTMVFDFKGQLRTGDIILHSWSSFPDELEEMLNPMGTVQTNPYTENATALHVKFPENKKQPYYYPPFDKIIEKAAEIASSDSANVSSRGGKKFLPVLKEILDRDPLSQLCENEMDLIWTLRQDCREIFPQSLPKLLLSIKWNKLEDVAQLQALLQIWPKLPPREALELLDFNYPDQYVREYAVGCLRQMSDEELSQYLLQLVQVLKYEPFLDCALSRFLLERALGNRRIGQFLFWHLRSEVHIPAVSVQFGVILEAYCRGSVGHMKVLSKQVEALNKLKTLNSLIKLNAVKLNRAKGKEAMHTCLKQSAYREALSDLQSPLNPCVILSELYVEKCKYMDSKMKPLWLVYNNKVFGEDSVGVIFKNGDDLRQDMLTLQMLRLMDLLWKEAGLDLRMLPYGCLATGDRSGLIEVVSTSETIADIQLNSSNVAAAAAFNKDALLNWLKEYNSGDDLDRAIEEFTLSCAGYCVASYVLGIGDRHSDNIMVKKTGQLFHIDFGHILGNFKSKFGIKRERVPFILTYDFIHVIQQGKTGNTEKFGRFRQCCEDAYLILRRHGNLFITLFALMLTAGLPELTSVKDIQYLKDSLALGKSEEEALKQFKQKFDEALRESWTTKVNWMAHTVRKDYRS
T3 sequence (P27986 whole entry partner, species assumed): as the sequence (P27986 whole entry partner, species assumed) above
T2 sequence (P48736 whole entry, species assumed): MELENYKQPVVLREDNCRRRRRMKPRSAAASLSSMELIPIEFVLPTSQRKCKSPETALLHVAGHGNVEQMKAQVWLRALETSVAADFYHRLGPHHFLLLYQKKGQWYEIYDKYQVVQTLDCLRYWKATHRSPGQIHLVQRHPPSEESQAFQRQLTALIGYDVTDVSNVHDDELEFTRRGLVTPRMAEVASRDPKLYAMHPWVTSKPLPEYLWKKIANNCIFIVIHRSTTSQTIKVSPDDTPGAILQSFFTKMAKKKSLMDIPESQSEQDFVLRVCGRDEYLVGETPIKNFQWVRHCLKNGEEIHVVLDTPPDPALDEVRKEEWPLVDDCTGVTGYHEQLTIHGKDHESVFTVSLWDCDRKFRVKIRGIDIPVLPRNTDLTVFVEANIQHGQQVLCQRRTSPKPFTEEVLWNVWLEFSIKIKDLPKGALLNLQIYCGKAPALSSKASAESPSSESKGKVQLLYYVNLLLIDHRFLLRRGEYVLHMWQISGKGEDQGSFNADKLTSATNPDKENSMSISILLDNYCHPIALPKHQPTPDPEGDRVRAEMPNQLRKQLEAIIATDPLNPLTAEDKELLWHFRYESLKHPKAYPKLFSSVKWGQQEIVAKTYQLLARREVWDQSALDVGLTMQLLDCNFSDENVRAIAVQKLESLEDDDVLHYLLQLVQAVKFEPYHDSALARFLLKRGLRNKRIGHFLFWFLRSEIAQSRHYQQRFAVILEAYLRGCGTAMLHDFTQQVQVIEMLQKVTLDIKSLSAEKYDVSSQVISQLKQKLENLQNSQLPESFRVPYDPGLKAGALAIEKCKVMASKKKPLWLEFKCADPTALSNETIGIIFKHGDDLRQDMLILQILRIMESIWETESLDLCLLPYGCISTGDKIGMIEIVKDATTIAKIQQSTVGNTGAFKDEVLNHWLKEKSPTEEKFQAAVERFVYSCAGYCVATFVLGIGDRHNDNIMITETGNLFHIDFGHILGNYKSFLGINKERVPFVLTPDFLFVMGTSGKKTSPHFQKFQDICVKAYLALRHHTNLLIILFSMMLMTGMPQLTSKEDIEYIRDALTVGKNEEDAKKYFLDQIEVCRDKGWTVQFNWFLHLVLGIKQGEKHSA

For the molecule `CC(Nc1ncnc2[nH]cc(F)c12)c1cc2ncc(Cl)n2c(=O)n1-c1ccccc1` (single isomer, unassigned) [Compound 451], the IC50 on p110δ/p85α amounted to 35 nM.

Regarding `Cc1ccn2nc([C@@H]3CCCN3c3ncnc4[nH]cc(C#N)c34)n(-c3ccccc3)c(=O)c12` [Compound 42], the IC50 on p110δ/p85α is around 1 nM.

In the case of `N#Cc1c[nH]c2ncnc(N3C[C@H](O)C[C@H]3c3nn4ccc(Cl)c4c(=O)n3-c3ccccc3)c12` [Compound 70, 4-((2S,4R)-2-(5-chloro-4-oxo-3-phenyl-3,4-dihydropyrrolo[1,2-f][1,2,4]triazin-2-yl)-4-hydroxypyrrolidin-1-yl)-7H-pyrrolo[2,3-d]pyrimidine-5-carbonitrile], the “PI3Kγ IH % @ 1 uM” value at p110γ is listed as above 100%.

For `CC(Nc1ncnc2[nH]cnc12)c1cn2ccc(Cl)c2c(=O)n1-c1ccc(F)cc1` (stereo not drawn) [Compound 78], the IC50 is 26 nM at p110β/p85α and 18 nM at p110γ.

With `CC(Nc1ncnc(N)c1C#N)c1cn2ccc(Cl)c2c(=O)n1-c1ccc(F)cc1` (stereo not drawn) [Compound 79], the “PI3Kδ IH % @ 1 uM” value on p110δ/p85α is given as 99.0%. Moreover, at p110β/p85α, the IC50 stood at 6 nM.

As for `CC(Nc1ncnc2[nH]cnc12)c1cn2ccc(Cl)c2c(=O)n1-c1cc(F)cc(F)c1` (stereo not drawn) [Compound 80], the “PI3Kδ IH % @ 1 uM” value at p110δ/p85α was above 100%. Also, the IC50 on p110δ/p85α came out at 7 nM; at p110γ it was 46 nM.

Turning to `Nc1ncc(-c2c[nH]c3ncnc(N4CC[C@H]4c4nn5ccc(Cl)c5c(=O)n4-c4ccccc4)c23)cn1` [Compound 104], the IC50 at p110δ/p85α is below 0.5 nM.

As to `COc1ccc(-c2c(N)ncnc2N2CC[C@H]2c2nn3ccc(Cl)c3c(=O)n2-c2ccccc2)cn1` [Compound 108, (S)-2-(1-(6-amino-5-(6-methoxypyridin-3-yl)pyrimidin-4-yl)azetidin-2-yl)-5-chloro-3-phenylpyrrolo[1,2-f][1,2,4]triazin-4(3H)-one], the IC50 was determined as 97 nM at p110δ/p85α and 199 nM on p110γ.

Regarding `O=c1c2c(Cl)ccn2nc([C@@H]2CCCN2c2ncnc3[nH]ccc23)n1-c1ccccc1` [Compound 145], the “PI3Kγ IH % @ 1 uM” value on p110γ amounted to 100%.

On to `O=c1c2c(Cl)ccn2nc([C@@H]2COCCN2c2ncnc3[nH]cnc23)n1-c1ccccc1` [Compound 153], for which the IC50 on p110δ/p85α came to 11 nM; on p110γ, 165 nM.

As for `N#Cc1c[nH]c2ncnc(N3C[C@@H](F)C[C@H]3c3nn4ccc(Cl)c4c(=O)n3Cc3ccccn3)c12` [Compound 158], the “PI3Kγ IH % @ 1 uM” value at p110γ is on record as 100%.

On to `COc1ncc(-c2c[nH]c3ncnc(N4CC[C@H]4c4nn5ccc(F)c5c(=O)n4-c4ccccc4)c23)cn1` [Compound 181], for which, at p110δ/p85α, the IC50 is below 0.46 nM.

For the molecule `COc1ccc(-c2c[nH]c3ncnc(N4CC[C@H]4c4nn5ccc(F)c5c(=O)n4-c4ccccc4)c23)cn1` [Compound 182], the IC50 at p110δ/p85α is below 0.46 nM.

Turning to `Nc1ccc(-c2c[nH]c3ncnc(N4CC[C@H]4c4nn5ccc(F)c5c(=O)n4-c4ccccc4)c23)cn1` [Compound 183], the IC50 on p110δ/p85α was below 0.46 nM.

`O=c1c2c(Cl)ccn2nc([C@@H]2C[C@H](O)CN2c2ncnc3[nH]cnc23)n1-c1ccccc1` [Compound 262]: at p110δ/p85α, the IC50 is below 1 nM.

For `Nc1ncc([N+](=O)[O-])c(N2CC[C@H]2c2nn3ccc(Cl)c3c(=O)n2-c2ccccc2)n1` [Compound 282], the IC50 on p110δ/p85α stood at 40 nM; on p110γ, 25 nM.

Turning to `CO/N=C(\C)c1c[nH]c2ncnc(N3CCC[C@H]3c3nn4ccc(Cl)c4c(=O)n3-c3ccccc3)c12` [Compound 308], the results for the IC50 on p110δ/p85α and at p110γ were 21 nM and 37 nM, respectively.

As for `CC(O)c1cnc(N)nc1N1CC[C@H]1c1nn2ccc(Cl)c2c(=O)n1-c1ccccc1` (stereo partly drawn) [Compound 357, 2-((2S)-1-(2-amino-5-(1-hydroxyethyl)pyrimidin-4-yl)azetidin-2-yl)-5-chloro-3-phenylpyrrolo[2,1-f][1,2,4]triazin-4(3H)-one], the IC50 on p110δ/p85α is above 300 nM.

Turning to `C[S+]([O-])c1cnc(N)nc1N1CC[C@H]1c1nn2ccc(Cl)c2c(=O)n1-c1ccccc1` (stereo partly drawn) [Compound 399], the “PI3Kβ IH % @ 1 uM” value on p110β/p85α (@ 1 uM) worked out at 3.5%.
